The record followed here is publication PMC11547513, “Design, Synthesis and Biological Activity Evaluation of β-Carboline Derivatives Containing Nitrogen Heterocycles” (Molecules, 2024).

Each structure is given as a SMILES string. Read-outs that look alike come from different tables or passages of the source.

Data set [1] concerns A549 (human lung cancer cell). In words: MTT assay, in vitro cytotoxicity on A549. As to conditions: for IC50: A549, read-out: IC50 (Mean ± S.D.), A549. In general terms: Tetrazolium assays rely on reduction of a dye to a coloured formazan, in cell work by metabolically active cells.
Source text: (§5) Cells were purchased from the Cell Bank of the Chinese Academy of Sciences (Kunming, China).
Data set [2] deals with K562 (human chronic myeloid leukemia cell). Kind of data set: MTT assay, in vitro cytotoxicity on K562. Particulars: Homo sapiens; for inhibition at 10 µM: K562, read-out: Inhibitory Activity/% at 10 μM, K562.
Source text: as §5
Data set [3] deals with Hek-293T (human embryonic kidney cells). Kind of data set: MTT assay, in vitro cytotoxicity on normal Hek-293T. As to conditions: read-out: Inhibitory Activity/% at 10 μM, Hek-293T.
Source text: as §5
Data set [4] relates to T47D (human breast cancer cell). In words: MTT assay, in vitro cytotoxicity on T47D. Particulars: for IC50: read-out: IC50 (Mean ± S.D.), T47D.
Source text: as §5
For data set [5], the system named is PC-3 (human prostate cancer cell). Kind of data set: MTT assay, in vitro cytotoxicity on PC-3.
Source text: as §5
The nature of data set [6]: Observation of water solubility / precipitation during the cell experiments. As to conditions: during antitumor activity measurement.
Data set [7] concerns PC-3 cells. Kind of data set: Intracellular ROS assay (DCFH-DA, flow cytometry). Type of data set: cell-based, human. As to conditions: 30 μM, 24 h; negative control MFI 19.8. The procedure:
(§1) Apoptosis is an important target for antitumor therapy. To explore the antitumor mechanism of compound 8q, cell apoptosis was detected using flow cytometry. […] Moreover, reactive oxygen species (ROS) play a significant role in cell growth, differentiation and apoptosis. Excessive ROS can cause oxidative damage and lead to cell apoptosis. […]
(§2) a wound healing assay was performed using the method we previously reported1. In short, PC-3 cells were seeded in a six-well plate at a density of 10 × 105 and incubated at a constant temperature of 37 ℃ and 5% CO2 for 24 h. Then the pipette tip was used to create a uniform wound on the surface of cells. Subsequently, after cleaning twice with PBS, the scratch healing of the 8q treatment group and the positive drug treatment […]
(§3) was used to measure and quantify cell migration. […]
PC-3 cells were seeded in a six-well plate at a density of 3 × 105, and cultured at 37 ℃ and 5% CO2 for 24 h before adding 10 μM. […] After completion, the cells were immediately detected on the Flow Cytometry (Solarbio, Beijing, China). […]
at 37 ° C for 20 min. Subsequently, the staining solution was wash off with basic culture medium and detected the fluorescence intensity using the flow cytometer. The data was analyzed and obtained through Flow Jo and Prism 7.04 software. […]
(§4) The distribution of cycles was analyzed by Flow Jo and Prism 7.04 software. […]
(In general: A flow cytometer gives signals particle by particle.)

The subject of data set [8] is PC-3 cells. In words: Cell cycle assay (PI, flow cytometry). Type of data set: cell-based, human. As to conditions: 30 μM, 24 h. As for the experimental part:
To analyze the effect of compound 8q on cell cycle, the cycle of PC-3 cells was detected after being treated with compound 8q for 24 h (Figure 5). […] In addition, Cyclin D1, a cell cycle-related protein, is a key regulator of cycle progression, mainly regulating G1/S phase transition. […] In summary, compound 8q can arrest cells in the G0/G1 phase. […]
2.5. Cell cycle arrest of compound 8q on PC-3
To determine the effect of compound 8q on the cell cycle distribution of PC-3 cell, we used our previous method with slight modifications2. Briefly, cells were incubated in a six-well plate with a density of 3 × 105 at 37 ℃ and 5% CO2 for 24 h, followed by the addition of different concentrations of compound 8q for further incubation for 24 h.
Next, the cells were collected and washed twice with PBS. 75% anhydrous ethanol was used to immobilize the cells under overnight conditions at 4 ℃. Subsequently, PBS washed cells, and RNase from the cell cycle assay kit (Solarbio, Beijing, China) was added and incubated in a constant temperature (37 ℃) water bath for 30 min. Then PI was added under dark conditions and incubated at 4 ℃ for another half hour to detect.
as §4

For data set [9], the system named is PC-3 cells. In words: Annexin V-FITC/PI apoptosis, flow cytometry. The format is cell-based, human. Particulars: 30 μM.
Source text: as §1
2.3.The effect of compound 8q on cell apoptosis
We used Annexin V-FITC/ PI double staining to evaluate cellular apoptosis via flow cytometry to figure out if apoptosis participates in the inhibition of cell growth.
PC-3 cells were seeded in a six-well plate at a density of 3 × 105, and cultured at 37 ℃ and 5% CO2 for 24 h before adding 10 μM. 20 μM and 30 μM compound 8q and 30 μM Harmine to each well. After 48 h, the cells were collected and stained and incubated flowing the manufacturer ’s protocol of the Annexin V-FITC/PI Apoptosis Detection Kit (Solarbio, Beijing, China). After completion, the cells were immediately detected on the Flow Cytometry (Solarbio, Beijing, China). The experimental results were processed using Flow Jo and Prism 7.04 software. […]

Data set [10] concerns PC-3 cells. In words: Wound healing assay. The format is cell-based, human. As to conditions: 30 μM, 24 h; control group 46.41%. As for the experimental part: Given that cell migration plays a pivotal role in tumor cell invasion, to further validate the impact of compound 8q on PC-3 cell motility, a wound healing assay was conducted. […] These findings underscore the potent inhibitory effect of compound 8q on the motility of PC-3 cells. […]
as §2, §3

[11] abbreviates: A549, read-out: Inhibitory Activity/% at 10 μM, A549.
Setting [12] is: read-out: Inhibitory Activity/% at 10 μM, T47D.
[13] abbreviates: Homo sapiens, read-out: Inhibitory Activity/% at 10 μM, PC-3, Table 2 (8 series), 10 μM, average of three replicates, "/" means no anticancer activity.

By melting point is commonly meant the temperature of the solid-liquid transition. In turn, `COc1cc(-c2nc(-c3nnc(SCC(=O)N4CCN(c5ccc(Br)cc5)CC4)o3)cc3c2[nH]c2ccccc23)cc(OC)c1OC` [Compound 8b] gave a melting point of 155.8 to 157.9 °C. Moreover, the inhibition at 10 µM in [1] (setting [11]) amounted to 5.03 ± 5.42%. In addition, the inhibition at 10 µM in [2] was determined as 10.8 ± 2.32%. For the same compound, the inhibition at 10 µM in data set [3] worked out at 38.4 ± 3.85%. For the same compound, the inhibition at 10 µM in data set [4] (setting [12]) was found to be 10.6 ± 1.16%. Besides, the inhibition at 10 µM in data set [5] (setting [13]) amounted to 8.91 ± 5.34%.

Consider `COc1cc(-c2nc(-c3nnc(SCC(=O)N4CCN(c5ccc(F)cc5)CC4)o3)cc3c2[nH]c2ccccc23)cc(OC)c1OC` [Compound 8d], for which the melting point was in the range of 156.8 to 158.1 °C. For the same compound, the inhibition at 10 µM in data set [1] (setting [11]) stood at 10.1 ± 4.44%. Besides, the inhibition at 10 µM in data set [2] amounted to 8.62 ± 5.59%. Also, in data set [3], the inhibition at 10 µM was 36.9 ± 2.63%. In addition, the inhibition at 10 µM in [4] (setting [12]) is < 0%. The inhibition at 10 µM in [5] (setting [13]) was 17.9 ± 2.8%.

With `COc1ccc(N2CCN(C(=O)CSc3nnc(-c4cc5c([nH]c6ccccc65)c(-c5cc(OC)c(OC)c(OC)c5)n4)o3)CC2)cc1` [Compound 8f], the melting point lay in the range of 156.5 to 158.6 °C. The inhibition at 10 µM in [1] (setting [11]) amounted to 13.2 ± 0.56%. In data set [2], the inhibition at 10 µM worked out at 7.87 ± 5.82%. Besides, in [3], the inhibition at 10 µM was 20.2 ± 4.34%. In addition, in data set [4] (setting [12]), the inhibition at 10 µM stood at 6.91 ± 5.13%. Besides, the inhibition at 10 µM in data set [5] (setting [13]) came to 34.5 ± 0.68%.

The IC50 is the concentration needed to halve the response being measured. With `COc1cc(-c2nc(-c3nnc(SCC(=O)N4CCN(c5ncccn5)CC4)o3)cc3c2[nH]c2ccccc23)cc(OC)c1OC` [Compound 8g], the IC50 in data set [1] is > 40 µM; in data set [2] (K562, read-out: IC50 (Mean ± S.D.), K562, average of three replicates), > 40 µM; in [4] it was > 40 µM; in data set [5] (Homo sapiens, read-out: IC50 (Mean ± S.D.), PC-3, average of three replicates) it was < 10 µM; in [5] (read-out: IC50 (Mean ± S.D.), PC-3, average of three replicates) it was 9.56 ± 1.43 µM. Moreover, the inhibition at 10 µM in data set [1] (setting [11]) turned out to be 35.8 ± 1.17%; in data set [2] it was 6.38 ± 0.52%; in data set [3], 29 ± 4.56%; in [4] (setting [12]), 40.6 ± 4.48%; in data set [5] (setting [13]) it was 45.4 ± 0.82%. In addition, in data set [6], the “Precipitation observed under microscopy” value is recorded as “precipitate crystals”.

As to `COc1cc(-c2nc(-c3nnc(SCC(=O)N4CCN(c5ccc(F)cc5F)CC4)o3)cc3c2[nH]c2ccccc23)cc(OC)c1OC` [Compound 8h], the melting point fell in the range of 178.1 to 179.4 °C. For the same compound, the inhibition at 10 µM in [1] (setting [11]) amounted to 17.9 ± 2.91%. Besides, the inhibition at 10 µM in data set [2] is 2.46 ± 1.78%. Moreover, the inhibition at 10 µM in data set [3] amounted to 29.6 ± 3.04%. The inhibition at 10 µM in data set [4] (setting [12]) was < 0%. Further, the inhibition at 10 µM in [5] (setting [13]) was 12.2 ± 1.13%.

`COc1cc(-c2nc(-c3nnc(SCC(=O)Nc4ccc(F)cc4)o3)cc3c2[nH]c2ccccc23)cc(OC)c1OC` [Compound 8k] returned a melting point of 235.8 to 237.4 °C. Further, the inhibition at 10 µM in [1] (setting [11]) turned out to be 33.2 ± 0.45%. Also, in data set [2], the inhibition at 10 µM is 33.5 ± 8.79%. Further, the inhibition at 10 µM in data set [3] is 29.6 ± 2.33%. Besides, the inhibition at 10 µM in [4] (setting [12]) is 6.94 ± 3.38%. In addition, the inhibition at 10 µM in data set [5] (setting [13]) was > 40%. The “Inhibitory Activity/% at 10 μM, PC-3” value in data set [5] (Table 2 (8 series), 10 μM, average of three replicates, "/" means no anticancer activity) worked out at 44.72 ± 1.82%.

Take `COc1cc(-c2nc(-c3nnc(SCC(=O)N4CCOc5ccccc54)o3)cc3c2[nH]c2ccccc23)cc(OC)c1OC` [Compound 8n]: the melting point fell in the range of 225.9 to 226.8 °C. Besides, the inhibition at 10 µM in [1] (setting [11]) was determined as 7.62 ± 3.84%. In addition, the inhibition at 10 µM in [2] came out at 38.2 ± 3.73%. In data set [3], the inhibition at 10 µM was 35.5 ± 1.75%. Besides, the inhibition at 10 µM in [4] (setting [12]) came to 25.6 ± 3.79%. Moreover, the inhibition at 10 µM in data set [5] (setting [13]) stood at 32 ± 1.17%.

In the case of `COc1ccc2c(c1)[nH]c1c(C)nccc12` [Harmine, reference compound], the “ROS mean fluorescence intensity (MFI) value” in [7] was determined as 37.9. Further, the “Cell cycle distribution, S phase” value in [8] (negative control 20.8%) was 26.4%. Besides, the “Cell cycle distribution, G2/M phase” value in data set [8] (negative control 23.6%) came to 49.0%. Further, the “Cell cycle distribution, G0/G1 phase” value in data set [8] (negative control 50.6%) was 17.3%. Also, the “Total apoptosis rate in PC-3 cells” value in data set [9] (48 h) stood at 65.96%. Further, the “Annexin V-FITC/PI flow cytometry quadrant Q1” value in data set [9] (Figure 4A) was 0.21. Further, the “Annexin V-FITC/PI flow cytometry quadrant Q2” value in [9] (Figure 4A) came out at 35.4. Also, the “Annexin V-FITC/PI flow cytometry quadrant Q3” value in data set [9] (Figure 4A) was 34.2. Besides, the “Annexin V-FITC/PI flow cytometry quadrant Q4” value in [9] (Figure 4A) is reported as 30.2. In addition, the “Migration rate of PC-3 cells” value in data set [10] was 21.51%. For the same compound, the IC50 in data set [1] is 25.9 ± 4.78 µM; in data set [2] (K562, read-out: IC50 (Mean ± S.D.), K562) it was 15.7 ± 2.27 µM; in [4], 38.5 ± 1.17 µM; in [5] (Homo sapiens, read-out: IC50 (Mean ± S.D.), PC-3), 24.4 ± 4.45 µM. Further, the inhibition at 10 µM was 31 ± 2.81% in [1] (A549, read-out: Inhibitory Activity/% at 10 μM, A549, Table 1 (7 series), 10 μM, average of three replicates, "/" means no anticancer activity); 31.2 ± 2.67% in data set [1] (A549, read-out: Inhibitory Activity/% at 10 μM, A549, Table 2 (8 series), 10 μM, average of three replicates, "/" means no anticancer activity); 36 ± 2.77% in [2]; 29.1 ± 3.19% in data set [3]; 51.3 ± 4.58% in data set [4] (read-out: Inhibitory Activity/% at 10 μM, T47D, Table 1 (7 series), 10 μM, average of three replicates, "/" means no anticancer activity); 48.8 ± 2.37% in data set [4] (read-out: Inhibitory Activity/% at 10 μM, T47D, Table 2 (8 series), 10 μM, average of three replicates, "/" means no anticancer activity). In addition, the inhibition at 10 µM in data set [5] (Homo sapiens, read-out: Inhibitory Activity/% at 10 μM, PC-3) is 14.5 ± 1.42%.
